{
  "source": "patent US20070020241A1",
  "about": "“Use of photosensitisation” (priority 2003, published 2007)",
  "key": {"[1]": {"test_system": "Propionibacterium acnes ATCC 29399", "test": "Lethal photosensitization of Propionibacterium acnes using SnCe6 and laser light", "format": "cell-based", "experimental": "(§1) Propionibacterium acnes ATCC 29399 was grown in pre-reduced Brain Heart Infusion broth at 37° C. in an anaerobic atmosphere. The cells were harvested by centrifugation and re-suspended in phosphate buffered saline (PBS) and diluted to 1×10^8 cfu/ml in PBS. 20 μl samples of the diluted bacterial suspension were then placed into wells of a 96-well plate, together with a magnetic stirrer bar. 100 μl of different concentrations (1-50 μg/ml) of the SnCe6 in PBS was added to the bacterial suspensions. Controls were performed with 100 μl PBS added to the bacteria and either irradiated (L+S−) or kept in the dark (L−S−). The experiment was carried out in duplicate.\n(§2) After incubation, the contents of some of the wells were exposed to light from the 35 mW Helium/Neon laser emitting light with a wavelength of 633 nm for 10 min, with stirring, corresponding to an energy density of 42 J/cm^2. Aluminium foil was placed in the surrounding wells to allow any escaping laser light to be reflected back into the target well. Control wells were not irradiated with laser light.\n(§3) After exposure to the laser light, 100 μl samples were immediately taken from each well and serially diluted, from 10^−1 to 10^−5, in 1 ml of pre-reduced TSY in 1.5 ml Eppendorf tubes. Duplicate 50 μl aliquots of each dilution were then spread out on half a CBA plate. The plates were incubated anaerobically at 37° C. and the resulting colonies were counted to determine the number of surviving organisms."}, "S. aureus 8325-4 [2]": {"test_system": "S. aureus 8325-4", "test": "Lethal photosensitisation using phage 75-SnCe6 conjugate and a white light source", "format": "cell-based, Staphylococcus aureus", "settings": "for % kill (L+S+): vs PBS in the dark", "text": "(§4) Bacterial strains: S. aureus 8325-4 • EMRSA-16\n(§5) Light source: KL200 (Schott). This is a 20-watt halogen cold light source. The light guide attached to it is a flexible optic fibre bundle which is directed onto a 96 well plate at a distance of 5 cm. A square of 4-wells is placed at the centre of the light source.\n(§6) Approx light intensity=44,000 lux or 470 μW/nm\n(§7) Phage 75 was conjugated to SnCe6 as described above. Phages were used at a concentration of 1×10^7 pfu/ml.\n(§8) Overnight cultures of S. aureus grown in nutrient broth were centrifuged, resuspended in PBS and adjusted to an OD of 0.05 at 600 nm (approximately 4×10^7 cfu/ml)\n(§9) 50 μl of bacterial culture was aliquoted into a 96-well plate and 50 μl of the one of the following solutions added to the wells: • 1) 3.5 μg/ml SnCe6-phage 75 (final concentration 1.75 μg/ml, 1×10^6 pfu/well) in PBS • 2) 1.75 μg/ml SnCe6-phage 75 (final concentration 0.875 μg/ml, 5×10^5 pfu/well) in PBS • 3) 3.5 μg/ml SnCe6 in PBS (final concentration 1.75 μg/ml) • 4) 1.75 μg/ml SnCe6 in PBS (final concentration 0.875 μg/ml) • 5) PBS • 6) Phage 75 at a concentration of 5×10^5 or 1×10^6 pfu/well in PBS\n(§10) Wells were either exposed to white light (4 wells at a time) or wrapped in tin foil and stored in the dark.\n(§11) After various exposure times an aliquot was taken from each well, serially diluted and spread onto Columbia blood agar. Agar plates were incubated overnight at 37° C. and counted the next day."}, "EMRSA-16": {"test_system": "EMRSA-16", "test": "Lethal photosensitisation using phage 75-SnCe6 conjugate and a white light source", "format": "cell-based, Staphylococcus aureus", "settings": "for % kill (L+S+): vs PBS in the dark", "text": "as §4, §5, §6, §7, §8, §9, §10, §11"}, "S. aureus 8325-4 [3]": {"test_system": "S. aureus 8325-4", "test": "Targeted photodynamic therapy using Φ11-SnCe6 conjugates and a laser light source", "format": "cell-based, Staphylococcus aureus", "settings": "1.15 μg ml^−1 SnCe6, 633 nm 35 mW HeNe laser 5 minutes (21 J/cm^2)", "experimental": "Bacteriophage Φ11 was propagated and precipitated as described above for phage 75, except that S aureus strain 8325-4 was used as the propagating strain. Tin chlorin e6 (SnCe6) was conjugated onto Staphylococcus phage Φ11 using the method described above, achieving bound concentrations of 2.3 and 3.5 μg ml^−1 SnCe6 with the phage Φ11 at 4.7×10^7 pfu.ml^−1. […] The final concentration of conjugated SnCe6 was 1.15 μg ml^−1.\nThe light source was a 35 mW Helium/Neon laser and irradiation (when used) was for 5 minutes in the case of FIGS. 3 and 4, and for 10 minutes in the case of FIG. 5."}, "[4]": {"test_system": "Streptococcus pyogenes ATCC 12202", "test": "Lethal photosensitization of Streptococcus pyogenes using SnCe6 and laser light", "format": "cell-based", "experimental": "as §1, with “streptococcus pyogenes” for “Propionibacterium acnes”, “12202” for “29399”, “in” for “in pre-reduced”, “atmosphere consisting of 5% CO2 in air.” for “anaerobic atmosphere.”, “1×10^7” for “1×10^8”\nas §2, with “633nm” for “633 nm”\nas §3, with “ml” for “ml of pre-reduced”, “placed in a” for “incubated anaerobically at”, “C. incubator for up to 48 h” for “C.”"}, "16 strains of EMRSA": {"test_system": "16 strains of EMRSA", "settings": "red light, higher light doses; cited from earlier work"}, "[5]": {"settings": "633 nm laser 10 min, 42 J/cm^2, 1-50 μg/ml"}, "[6]": {"settings": "dark, increasing concentrations (1-50 μg/ml)"}, "[7]": {"settings": "photosensitiser 50 μg/ml, 633 nm laser 10 min, 42 J/cm^2"}, "[8]": {"settings": "white light 10 min, final photosensitiser 0.875 μg/ml"}, "[9]": {"settings": "white light 10 min, final photosensitiser 1.75 μg/ml"}, "[10]": {"settings": "white light 20 min, final photosensitiser 1.75 μg/ml"}, "[11]": {"settings": "without exposure to white light"}},
  "data": [
    {"compound": "C=CC1=C(C)C2=CC3=NC(=C(CC(=O)[O-])C4=NC(=C(C)C4=C([O-])[O-])C=c4[n-]c(c(C)c4CC)=CC1=N2)C(CCC(=O)[O-])C3C.[H+].[Sn+4]", "note": "(stereo not shown) [SnCe6, tin (IV) chlorin e6]", "values": [
      {"measurement": "effect on the viable count, irradiation", "setting": "[1]; [5]", "value": "concentration-dependent decrease in the viable count"},
      {"measurement": "effect on the viable count, incubation in the dark", "setting": "[1]; [6]", "value": "no significant effect"},
      {"measurement": "% kill of the organism", "setting": "[1]; [7]", "value": 100, "unit": "%"},
      {"measurement": "% kill (L+S+)", "setting": "S. aureus 8325-4 [2]; [8]", "value": 45.3, "unit": "%"},
      {"measurement": "% kill (L+S+)", "setting": "S. aureus 8325-4 [2]; [9]", "value": 97.8, "unit": "%"},
      {"measurement": "% kill (L+S+)", "setting": "S. aureus 8325-4 [2]; [10]", "value": 97.9, "unit": "%"},
      {"measurement": "bacterial counts of controls vs unirradiated suspension without photosensitiser", "setting": "S. aureus 8325-4 [2]; [11]", "value": "not significantly different"},
      {"measurement": "% kill (L+S+)", "setting": "EMRSA-16; [8]", "value": 0, "unit": "%"},
      {"measurement": "% kill (L+S+)", "setting": "EMRSA-16; [9]", "value": 0, "unit": "%"},
      {"measurement": "% kill (L+S+)", "setting": "EMRSA-16; [10]", "value": 99.78, "unit": "%"},
      {"measurement": "bacterial counts of controls vs unirradiated suspension without photosensitiser", "setting": "EMRSA-16; [11]", "value": "not significantly different"},
      {"measurement": "% kill (compared to control counts in phosphate buffered saline)", "setting": "S. aureus 8325-4 [3]", "value": "did not achieve any kill"},
      {"measurement": "effect on the viable count, irradiation", "setting": "[4]; [5]", "value": "concentration-dependent decrease in the viable count"},
      {"measurement": "effect on the viable count, incubation in the dark", "setting": "[4]; [6]", "value": "no significant effect"},
      {"measurement": "% kill of the organism", "setting": "[4]; [7]", "value": 99.9997, "unit": "%"}
    ]},
    {"compound": "aluminium disulphonated phthalocyanine [AlPcS2]", "values": [
      {"measurement": "% killing", "setting": "16 strains of EMRSA", "value": 100, "unit": "%"}
    ]}
  ]
}
